Test results reported in patent US20140031227A1, “HERBICIDAL COMPOSITIONS COMPRISING 4-AMINO-3-CHLORO-5-FLUORO-6-(4-CHLORO-2-FLUORO-3-METHOXYPHENYL) PYRIDINE-2-CARBOXYLIC ACID OR A DERIVATIVE THEREOF AND GLYPHOSATE OR GLUFOSINATE” (DOW AGROSCIENCES LLC, priority 2012, published 2014).
Structures can show the parent of a compound that is named as a salt.

How the values were obtained:
Type in all cases: in vivo
[1] = system: CHEAL (Chenopodium album L., common lambsquarters); assay: Example IV postemergence foliar-applied mixtures, general weed control, greenhouse: CHEAL
Experimental: (§1) Seeds or nutlets of the desired test plant species were planted in Sun Gro Metro-Mix® 360 planting mixture, which typically has a pH of 6.0 to 6.8 and an organic matter content of about 30 percent, in plastic pots with a surface area of 84.6 square centimeters (cm^2). […] The plants were grown for 7-31 days (d) in a greenhouse with an approximate 15 hour (h) photoperiod which was maintained at about 23-29° C. during the day and 22-28° C. during the night. Nutrients (Peters Excel® 15-5-15 5-Ca 2-Mg) and water were added on a regular basis and supplemental lighting was provided with overhead metal halide 1000-Watt lamps as necessary. The plants were employed for testing when they reached the first, second, or third true leaf stage.
(§2) Treatments consisted of the acid or the benzyl ester of 4-amino-3-chloro-5-fluoro-6-(4-chloro-2-fluoro-3-methoxy-phenyl)pyridine-2-carboxylic acid (Compound A), each formulated as an SC, and various herbicidal components alone and in combination. Forms of compound A were applied on an acid equivalent basis.
(§3) Other herbicidal components were applied on an acid equivalent or active ingredient basis and included the 5-enolpyruvylshikimate-3-phosphate synthase (EPSPS)-inhibiting herbicide, glyphosate dimethylamine salt, formulated as Durango DMA® and the glutamine synthase (GS)-inhibiting herbicide, glufosinate ammonium, formulated as Ignite® 280.
(§4) For treatments comprised of formulated compounds, measured amounts of compounds were placed individually in 25 mL glass vials and diluted in a volume of 1.25% (v/v) Agri-dex crop oil concentrated to obtain 12× stock solutions. […] Application solutions were prepared by adding an appropriate amount of each stock solution (typically 1 mL) and diluted to the appropriate final concentrations with the addition of 10 mL of an aqueous mixture of 1.25% (v/v) Agri-dex crop oil concentrate so that the final spray solutions contained 1.25% (v/v) Agri-dex crop oil concentrate.
(§5) All stock solutions and applications solutions were visually inspected for compound compatibility prior to application. Compound requirements are based upon a 12 mL application volume at a rate of 187 liters per hectare (L/ha). Formulated compounds were applied to the plant material with an overhead Mandel track sprayer equipped with 8002E nozzles calibrated to deliver 187 L/ha over an application area of 0.503 square meters (m^2) at a spray height of 18 to 20 inches (46 to 50 cm) above the average plant canopy height. Control plants were sprayed in the same manner with the solvent blank.
(§6) The treated plants and control plants were placed in a greenhouse as described above and watered by sub-irrigation to prevent wash-off of the test compounds. After approximately 3 weeks, the condition of the test plants as compared with that of the untreated plants was determined visually and scored on a scale of 0 to 100 percent where 0 corresponds to no injury or growth inhibition and 100 corresponds to complete kill.
(§7) Colby's equation was used to determine the herbicidal effects expected from the mixtures (Colby, S. R. 1967. Calculation of the synergistic and antagonistic response of herbicide combinations. Weeds 15:20-22.) .

[2] = system: DIGSA (Digitaria sanguinalis (L.) Scop., large crabgrass); assay: Example IV postemergence foliar-applied mixtures, general weed control, greenhouse: DIGSA
Experimental: as §1, §2, §3, §4, §5, §6, §7

[3] = system: CIRAR (Cirsium arvense (L.) Scop., Canada thistle); assay: Example IV postemergence foliar-applied mixtures, general weed control, greenhouse: CIRAR (Table 17, species inferred from b27)
Experimental: as §1, §2, §3, §4, §5, §6, §7

[4] = system: IPOHE (Ipomoea hederacea Jacq., morning glory, ivyleaf); assay: Example IV postemergence foliar-applied mixtures, general weed control, greenhouse: IPOHE
Experimental: as §6, §7
The following equation was used to calculate the expected activity of mixtures containing two active ingredients, A and B:
A=observed efficacy of active ingredient A at the same concentration as used in the mixture.
B=observed efficacy of active ingredient B at the same concentration as used in the mixture.

[5] = system: CYPDI (Cyperus difformis L., smallflower umbrella sedge); assay: Example I postemergence foliar-applied mixtures, direct seeded rice weeds, greenhouse: CYPDI
Experimental: Seeds or nutlets of the desired test plant species were planted in a soil matrix prepared by mixing a loam or sandy loam soil (e.g., 28.6 percent silt, 18.8 percent clay, and 52.6 percent sand, with a pH of about 5.8 and an organic matter content of about 1.8 percent) and calcareous grit in an 80 to 20 ratio. The soil matrix was contained in plastic pots with a volume of 1 quart and a surface area of 83.6 square centimeters (cm^2). […] The plants were grown for 8-22 days in a greenhouse with an approximate 14 hr photoperiod which was maintained at about 29° C. during the day and 26° C. during the night. Nutrients (Peters Excel® 15-5-15 5-Ca 2-Mg and iron chelate) were applied in the irrigation solution as needed and water was added on a regular basis. Supplemental lighting was provided with overhead metal halide 1000-Watt lamps as necessary. The plants were employed for testing when they reached the first through fourth true leaf stage.
as §2, with “esters” for “the benzyl ester”, “SC (suspension concentrate),” for “SC,”
For treatments comprised of formulated compounds, measured amounts of compounds were placed individually in 25 mL glass vials and diluted in a volume of 1.25% (v/v) Agri-Dex® crop oil concentrated to obtain 12× stock solutions. […] Application solutions were prepared by adding an appropriate amount of each stock solution (e.g., 1 mL) and diluted to the appropriate final concentrations with the addition of 10 mL of an aqueous mixture of 1.25% (v/v) crop oil concentrate so that the final spray solutions contained 1.25+/−0.05% (v/v) crop oil concentrate.
All stock solutions and applications solutions were visually inspected for compound compatibility prior to application. Spray solutions were applied to the plant material with an overhead Mandel track sprayer equipped with a 8002E nozzles calibrated to deliver 187 L/ha over an application area of 0.503 m^2 at a spray height of 18 to 20 inches (46 to 50 cm) above average plant canopy height. Control plants were sprayed in the same manner with the solvent blank.
as §6, with “kill. […]” for “kill.”

[6] = Compound A Benzyl Ester 2 gae/ha alone, 18 DAA
[7] = Compound A Benzyl Ester 4 gae/ha alone, 18 DAA
[8] = Compound A Benzyl Ester 8 gae/ha alone, 18 DAA
[9] = Compound A Benzyl Ester alone, 2 gae/ha
[10] = Compound A Benzyl Ester alone, 4 gae/ha
[11] = Compound A Benzyl Ester alone, 8 gae/ha
[12] = Compound A Benzyl Ester alone, 16 gae/ha
[13] = Compound A Benzyl Ester alone, 32 gae/ha
[14] = Compound A Benzyl Ester 2 gae/ha alone
[15] = Compound A Benzyl Ester 4 gae/ha alone
[16] = Compound A Benzyl Ester 8 gae/ha alone
[17] = Compound A Benzyl Ester 16 gae/ha alone
[18] = Compound A Benzyl Ester 32 gae/ha alone
[19] = Glufosinate ammonium salt 225 gai/ha alone, 18 DAA
[20] = Glufosinate ammonium salt 225 gai/ha alone

`COc1c(Cl)ccc(-c2nc(C(=O)OCc3ccccc3)c(Cl)c(N)c2F)c1F` [Compound A Benzyl Ester] was tested, and the “Visual Weed Control (%) - 18 DAA CHEAL Obs” value [1, 6] was 50%, the “Visual Weed Control (%) - 18 DAA CHEAL Obs” value [1, 7] was 70% and the “Visual Weed Control (%) - 18 DAA CHEAL Obs” value [1, 8] was 90%. For the same compound, the “Visual Weed Control (%) - 18 DAA CHEAL Obs” value [1, 9] was 50%, the “Visual Weed Control (%) - 18 DAA CHEAL Obs” value [1, 10] was 70% and the “Visual Weed Control (%) - 18 DAA CHEAL Obs” value [1, 11] was 90%. For the same compound, the “Visual Weed Control (%) - 18 DAA CHEAL Obs” value [1, 12] was 95%, the “Visual Weed Control (%) - 18 DAA CHEAL Obs” value [1, 13] was 99% and the “Visual Weed Control (%) - 18 DAA DIGSA Obs” value [2, 6] was 0%. The “Visual Weed Control (%) - 18 DAA DIGSA Obs” value [2, 7] was 0%, the “Visual Weed Control (%) - 18 DAA DIGSA Obs” value [2, 8] was 0% and the “Visual Weed Control (%) - 18 DAA DIGSA Obs” value ([2]; Compound A Benzyl Ester 16 gae/ha alone, 18 DAA) was 0%. For the same compound, the “Visual Weed Control (%) - 18 DAA DIGSA Obs” value ([2]; Compound A Benzyl Ester 32 gae/ha alone, 18 DAA) was 30%, the “Visual Weed Control (%) - 18 DAA DIGSA Obs” value [2, 9] was 0% and the “Visual Weed Control (%) - 18 DAA DIGSA Obs” value [2, 10] was 0%. For the same compound, the “Visual Weed Control (%) - 18 DAA DIGSA Obs” value [2, 11] was 0%, the “Visual Weed Control (%) - 18 DAA DIGSA Obs” value [2, 12] was 0% and the “Visual Weed Control (%) - 18 DAA DIGSA Obs” value [2, 13] was 30%. For the same compound, the “Visual Weed Control (%) - 18 DAA CIRAR Obs” value [3, 14] was 60%, the “Visual Weed Control (%) - 18 DAA CIRAR Obs” value [3, 15] was 70% and the “Visual Weed Control (%) - 18 DAA CIRAR Obs” value [3, 16] was 80%. The “Visual Weed Control (%) - 18 DAA CIRAR Obs” value [3, 17] was 85%, the “Visual Weed Control (%) - 18 DAA CIRAR Obs” value [3, 18] was 90% and the “Visual Weed Control (%) - 18 DAA IPOHE Obs” value [4, 14] was 15%. The “Visual Weed Control (%) - 18 DAA IPOHE Obs” value [4, 15] was 25%, the “Visual Weed Control (%) - 18 DAA IPOHE Obs” value [4, 16] was 25% and the “Visual Weed Control (%) - 18 DAA IPOHE Obs” value [4, 17] was 35%. For the same compound, the “Visual Weed Control (%) - 18 DAA IPOHE Obs” value [4, 18] was 45%.
`CP(=O)(O)CCC(N)C(=O)O` (stereo not shown) [Glufosinate ammonium salt, 2-amino-4-(hydroxymethylphosphinyl)butanoic acid monoammonium salt, reference compound] was tested, and the “Visual Weed Control (%) - 21 DAA CYPDI Obs” value ([5]; glufosinate ammonium alone, 135.5 gae/ha) was 0%, the “Visual Weed Control (%) - 21 DAA CYPDI Obs” value ([5]; glufosinate ammonium alone, 271 gae/ha) was 0% and the “Visual Weed Control (%) - 18 DAA CHEAL Obs” value ([1]; Glufosinate ammonium salt 112.5 gai/ha alone, 18 DAA) was 0%. The “Visual Weed Control (%) - 18 DAA CHEAL Obs” value [1, 19] was 10%, the “Visual Weed Control (%) - 18 DAA CHEAL Obs” value ([1]; Glufosinate ammonium salt 450 gai/ha alone, 18 DAA) was 30% and the “Visual Weed Control (%) - 18 DAA DIGSA Obs” value [2, 19] was 25%. For the same compound, the “Visual Weed Control (%) - 18 DAA CIRAR Obs” value [3, 20] was 15%, the “Visual Weed Control (%) - 18 DAA IPOHE Obs” value ([4]; Glufosinate ammonium salt 112.5 gai/ha alone) was 10% and the “Visual Weed Control (%) - 18 DAA IPOHE Obs” value [4, 20] was 20%. For the same compound, the “Visual Weed Control (%) - 18 DAA IPOHE Obs” value ([4]; Glufosinate ammonium salt 450 gai/ha alone) was 50%.
In the case of `COc1c(Cl)ccc(-c2nc(C(=O)O)c(Cl)c(N)c2F)c1F` [Compound A Acid, 4-amino-3-chloro-6-(4-chloro-2-fluoro-3-methoxyphenyl)-5-fluoropyridine-2-carboxylic acid], the “Visual Weed Control (%) - 21 DAA CYPDI Obs” value ([5]; Compound A Acid alone, 4.38 gae/ha) is reported as 50% and the “Visual Weed Control (%) - 21 DAA CYPDI Obs” value ([5]; Compound A Acid alone, 8.75 gae/ha) is reported as 85%.
